Results on three molecules are retold here after patent publication US11583217B2, “Neurophysiological data analysis using spatiotemporal parcellation” (Firefly Neuroscience Ltd., priority 2012, dated 2023).

What all share (format): in vivo, human
Assay [1] concerns ADHD subject. Put plainly: BNA pattern similarity from EEG data of ADHD subjects treated with MPH. An excerpt: The BNA patterns shown in FIGS. 6A-6D are associated subject-specific BNA patterns constructed from EEG data recorded from a particular ADHD subject. The black dots in FIGS. 6A-6D show the locations of the EEG electrodes. The color codes in these BNA patterns are the same as defined above. The subject-specific BNA patterns shown in FIGS. 6A-6B describe the association of the ADHD subject to a group of untreated ADHD subjects, and the BNA patterns shown in FIGS. 6C-6D describe the association of the ADHD subject to a group of ADHD subjects all treated with methylphenidate (MPH). The subject-specific BNA patterns shown in FIGS. 6A and 6C are based on EEG data recorded from the ADHD subject before any treatment, and subject-specific BNA patterns shown in FIGS. 6B and 6D are based on EEG data recorded from the ADHD subject following a treatment with MPH.
The baseline annotated BNA pattern constructed from the group of untreated ADHD subjects, and the baseline annotated BNA pattern constructed from the same group of subjects, but following treatment with MPH are shown in FIGS. 6E and 6F, respectively.
The calculated similarity corresponding to the BNA pattern of FIG. 6A is 0.73, the calculated similarity corresponding to the BNA pattern of FIG. 6B is 0.19, the calculated similarity corresponding to the BNA pattern of FIG. 6C is 0.56, and the calculated similarity corresponding to the BNA pattern of FIG. 6D is 0.6.
The BNA patterns shown in FIGS. 7A-7D were constructed from EEG data recorded from a different ADHD subject, which was also treated with MPH according to the same protocol as described above with respect to the responder subject of FIGS. 6A-6D. The black dots in FIGS. 7A-7D show the locations of the EEG electrodes, and the color codes in these BNA patterns is the same as defined above. Thus, the subject-specific BNA patterns shown in FIGS. 7A-7B describe the association of the ADHD subject to a group of untreated ADHD subjects, and the BNA patterns shown in FIGS. 7C-7D describe the association of the ADHD subject to a group of ADHD subjects all treated with methylphenidate (MPH). The subject-specific BNA patterns shown in FIGS. 7A and 7C are based on EEG data recorded from the ADHD subject before any treatment, and subject-specific BNA patterns shown in FIGS. 7B and 7D are based on EEG data recorded from the ADHD subject following a treatment with MPH.
The calculated similarity corresponding to the BNA pattern of FIG. 7A is 0, the calculated similarity corresponding to the BNA pattern of FIG. 7B is 0, the calculated similarity corresponding to the BNA pattern of FIG. 7C is 0.06, and the calculated similarity corresponding to the BNA pattern of FIG. 7D is 0.

In assay [2] the test system is groups of subjects. Put plainly: Group BNA patterns from EEG data during working memory test (cue/probe). Particulars: vs placebo. An excerpt: FIGS. 10A-10H show group BNA patterns constructed from EEG data recorded from two groups of subjects during a working memory test. The black dots in FIGS. 10A-10H show the locations of the EEG electrodes, and the color codes in these BNA patterns is the same as defined above. During the test, each subject of the group was asked to memorize an image of a human face (referred to as the “cue”). Two seconds later, the subject was again presented with an image of a human face (referred to as the “probe”) and was asked to determine whether the probe matches the cue.
FIGS. 10A and 10B are group BNA patterns constructed following treatment with a placebo (referred to below as placebo A), and FIGS. 10C and 10D are group BNA patterns constructed following treatment with a Scopolamine. The BNA patterns of the second group are shown in FIGS. 10E-10H, where FIGS. 10E and 10F are group BNA patterns constructed following treatment with a placebo (referred to below as placebo B), and FIGS. 10G and 10H are BNA patterns constructed following treatment with a Ketamine.
The BNA pattern of FIGS. 10A, 10C, 10E and 10G were constructed from the data acquired during the time at which the cue was presented and are recognized by the present inventor as containing information pertaining to the memorization process in the brain (also known in the literature as “encoding”). The BNA patterns of FIGS. 10B, 10D, 10F and 10H were constructed from the data acquired during the time at which the probe was presented, and are recognized by the present inventor as containing information pertaining to the retrieval process in the brain. It is noted that the BNA patterns of FIGS. 10A-10H describe differentiating activity networks. Thus, for example, the BNA pattern of FIG. 10A describes the brain activity during […] that most differentiated between placebo A and Scopolamine, and the BNA pattern of FIG. 10B describes the brain activity during […] that most differentiated between placebo B and Ketamine.

Assay [3] deals with healthy volunteer subjects. Description: BNA pattern similarity from EEG data of healthy volunteers during attention oddball task, scopolamine vs placebo. An excerpt: FIGS. 8A-8D show associated subject-specific BNA patterns constructed from EEG data recorded from two healthy volunteer subjects. The black dots in FIGS. 8A-8D show the locations of the EEG electrodes, and the color codes in these BNA patterns are the same as defined above. The subject-specific BNA patterns shown in FIGS. 8A-8D describe the association of the subjects to a group of healthy subjects following treatment with a placebo drug and while performing an attention task related oddball task.
FIGS. 8A and 8C are subject-specific BNA patterns constructed from EEG data collected from a first subject (FIG. 8A) and a second subject (FIG. 8C) following treatment with a placebo, and FIGS. 8B and 8D are subject-specific BNA patterns constructed from EEG data collected from the first subject (FIG. 8B) and the second subject (FIG. 8D) following treatment with a scopolamine drug. Scopolamine is an anticholinergic drug with inhibitory effect on M2-cholinergic receptors of excited type. It has an inhibitory effect on the cerebral cortex, typically inducing slight-anesthetic effect.
(§1) The calculated similarities are 0.937, 0.079, 1.0 and 0.94, respectively. It is recognized by the present inventors that these similarity values indicate that the responsivity to scopolamine is high for the first subject (FIGS. 8A and 8B) and low for the second subject (FIGS. 8C and 8D).

In assay [4] the test system is healthy volunteers. Put plainly: Scopolamine induced cognitive impairment model, ΔBNA scores in Auditory Oddball Task. The settings on record: scopolamine 0.4 mg, Novel stimulus, connectivity score; only 2 patients on placebo. An excerpt:
The task chosen for this study was the Auditory Oddball Task, but other tasks are not excluded from the scope of the present invention. FIG. 21 is a schematic representation of an Auditory Oddball Task used in this study. The task included 600 repetitive 1000 ms auditory stimulations of which 80% were 2000 Hz stimuli (Frequent—blue circles), 10% were 1000 Hz stimuli requiring a motor response (Target—red circles) and 10% were rare non-targets composed of various sounds (Novel—yellow star). The stimuli were separated by 1500 ms intervals. The sound was delivered through a headset at a sound pressure level of 70 dB.
• Repeatability: Within-subject BNA score repeatability was assessed by computing the Intraclass Correlation. • Normality Tests: Normality of ΔBNA distributions was evaluated using the Kolmogorov-Smirnov test of normality (p≥0.200) and validated with corresponding Q-Q plots. • SEM Computation: The change over time in the BNA Scores of a subject/patient from baseline (ΔBNA) is evaluated in terms of standard error of measurements (SEM) against the Normative Database to determine likelihood of true change.
A pharmacological model study included 13 healthy volunteers of both genders, Aged 18-45. […] The second and third sessions were at random order, double blind. ΔBNA Score values (Baseline—Placebo and Baseline—Drug) were evaluated against SEM values. […]

Assay [5] has as its system healthy volunteer subjects. Description: Clinical observation of behavioral endpoint following scopolamine. The settings on record: following treatment with scopolamine.
Text: as §1

Regarding `COC(=O)C(c1ccccc1)C1CCCCN1` (stereo not drawn) [MPH, methylphenidate], the “responsiveness to treatment inferred from similarity values” is recorded as “responsive to the treatment” in assay [1] (ADHD subject of FIGS. 6A-6D) and “not responsive to the treatment” in assay [1] (ADHD subject of FIGS. 7A-7D). Besides, the “BNA pattern similarity to baseline BNA pattern of untreated ADHD group” value in assay [1] (different ADHD subject, following MPH (FIG. 7B), 0 before treatment) was found to be 0; in assay [1] (responder ADHD subject, following single dose MPH (FIG. 6B), 0.73 before treatment) it was 0.19. Moreover, the “BNA pattern similarity to baseline BNA pattern of MPH-treated ADHD group” value in assay [1] (different ADHD subject, following MPH (FIG. 7D), 0.06 before treatment) is 0; in assay [1] (responder ADHD subject, following single dose MPH (FIG. 6D), 0.56 before treatment), 0.6.

On to `CNC1(c2ccccc2Cl)CCCCC1=O` (stereo not drawn) [ketamine], for which, in assay [2], the “central and frontal activation in the group BNA pattern” value was “increased central and frontal activation”; the “fronto-parietal part of the group BNA pattern” value is listed as “No significant change”; the “right lateralization in the group BNA pattern” value is recorded as “decreased right lateralization”.

As to `CN1[C@@H]2C[C@@H](OC(=O)[C@H](CO)c3ccccc3)C[C@H]1[C@@H]1O[C@@H]12` [scopolamine], the responsivity to scopolamine entry is reported as “high” in assay [3] (first subject (FIGS. 8A and 8B)); “low” in assay [3] (second subject (FIGS. 8C and 8D)). Besides, the “BNA pattern similarity to baseline BNA pattern of placebo-treated healthy group” value was found to be 0.079 in assay [3] (first subject, following scopolamine (FIG. 8B), 0.937 after placebo) and 0.94 in assay [3] (second subject, following scopolamine (FIG. 8D), 1.0 after placebo). The “patients with post-treatment BNA scores more than 2 SEM lower than the baseline score” value in assay [4] is given as “Eight out of 13”. For the same molecule, the “central and frontal activation in the group BNA pattern” value in assay [2] was “extensive compensatory central and frontal activation”. Further, the “fronto-parietal part of the group BNA pattern” value in assay [2] is “low connectivity between frontal and parietal regions”. Also, the “decrease in behavioral endpoint” value in assay [5] (first subject) is 70%. Further, the “change in behavioral endpoint” value in assay [5] (second subject) was “no change”.
